Here are results for nine molecules from patent US10004701B2, “Methods and compositions for treating infection” (UNIVERSITY OF ROCHESTER, priority 2012, dated 2018).

Structures are written as SMILES. Counter-ions that a name gives are not always drawn. Like-named read-outs stand apart in the source and are kept apart here.

Assay in all cases: AK assay 384-well format, Prestwick library screening
Assay [1] deals with A. baumannii strain 98-37-09. The format is cell-based, Acinetobacter baumannii. The settings on record: 50 μM final drug concentration; for fold induction at 50 µM: Acinetobacter baumannii, 983709, 3 h.
The next assay has as its system E. faecium. The format is cell-based, Enterococcus faecium. The settings on record: 50 μM final drug concentration; for fold induction at 50 µM: Enterococcus faecium, 3 h.
The next assay relates to E. cloacae. The format is cell-based, Enterobacter cloacae. The settings on record: 50 μM final drug concentration; for fold induction at 50 µM: Enterobacter cloacae, 3 h.
Assay [2] concerns S. aureus strain USA300-0114. The format is cell-based, Staphylococcus aureus. The following applies: 50 μM final drug concentration; for fold induction at 50 µM: Staphylococcus aureus, USA300, 3 h.
The test system of a further assay is P. aeruginosa. The format is cell-based, Pseudomonas aeruginosa. The following applies: 50 μM final drug concentration; for fold induction at 50 µM: Pseudomonas aeruginosa, 3 h.
In a further assay the test system is E. coli. The format is cell-based, Escherichia coli. The following applies: 50 μM final drug concentration; for fold induction at 50 µM: Escherichia coli, 3 h.
The subject of another assay is K. pneumoniae. The format is cell-based, Klebsiella pneumoniae. The settings on record: 50 μM final drug concentration; for fold induction at 50 µM: Klebsiella pneumoniae, 3 h.
Setting [3] is: planktonic A. baumannii, cutoff for positive-scoring molecules 3-fold increase, read-out: AK-based Prestwick Library Screening Results, A. baumannii (increase in extracellular AK activity).
The mark [4] stands for this setting: planktonic E. faecium, cutoff for positive-scoring molecules 3-fold increase, read-out: AK-based Prestwick Library Screening Results, E. faecium (increase in extracellular AK activity).
Setting [5] is: planktonic E. cloacae, cutoff for positive-scoring molecules 3-fold increase, read-out: AK-based Prestwick Library Screening Results, E. cloacae (increase in extracellular AK activity).
Where [6] appears, read: planktonic S. aureus, cutoff for positive-scoring molecules 3-fold increase, read-out: AK-based Prestwick Library Screening Results, S. aureus (increase in extracellular AK activity).
The mark [7] stands for this setting: planktonic P. aeruginosa, cutoff for positive-scoring molecules 3-fold increase, read-out: AK-based Prestwick Library Screening Results, P. aeruginosa (increase in extracellular AK activity).
The mark [8] stands for this setting: planktonic E. coli, cutoff for positive-scoring molecules 3-fold increase, read-out: AK-based Prestwick Library Screening Results, E. coli (increase in extracellular AK activity).
Setting [9] is: planktonic K. pneumoniae, cutoff for positive-scoring molecules 3-fold increase, read-out: AK-based Prestwick Library Screening Results, K. pneumoniae (increase in extracellular AK activity).
Where [10] appears, read: planktonic A. baumannii, […], read-out: AK-based Prestwick Library Screening Results, A. baumannii (increase in extracellular AK activity).
The mark [11] stands for this setting: planktonic E. faecium, […], read-out: AK-based Prestwick Library Screening Results, E. faecium (increase in extracellular AK activity).
Where [12] appears, read: planktonic E. cloacae, […], read-out: AK-based Prestwick Library Screening Results, E. cloacae (increase in extracellular AK activity).
The mark [13] stands for this setting: planktonic S. aureus, […], read-out: AK-based Prestwick Library Screening Results, S. aureus (increase in extracellular AK activity).
The mark [14] stands for this setting: planktonic P. aeruginosa, […], read-out: AK-based Prestwick Library Screening Results, P. aeruginosa (increase in extracellular AK activity).
The mark [15] stands for this setting: planktonic E. coli, […], read-out: AK-based Prestwick Library Screening Results, E. coli (increase in extracellular AK activity).
Setting [16] is: planktonic K. pneumoniae, […], read-out: AK-based Prestwick Library Screening Results, K. pneumoniae (increase in extracellular AK activity).
[17] abbreviates: planktonic, cutoff for positive 3-fold increase, read-out: AK-based Prestwick Library Screening Results, A. baumannii (fold increase in extracellular AK activity).
The mark [18] stands for this setting: planktonic, cutoff for positive 3-fold increase, read-out: AK-based Prestwick Library Screening Results, E. faecium (fold increase in extracellular AK activity).
Where [19] appears, read: planktonic, cutoff for positive 3-fold increase, read-out: AK-based Prestwick Library Screening Results, E. cloacae (fold increase in extracellular AK activity).
The mark [20] stands for this setting: planktonic, cutoff for positive 3-fold increase, read-out: AK-based Prestwick Library Screening Results, S. aureus (fold increase in extracellular AK activity).
The mark [21] stands for this setting: planktonic, cutoff for positive 3-fold increase, read-out: AK-based Prestwick Library Screening Results, P. aeruginosa (fold increase in extracellular AK activity).
Setting [22] is: planktonic, cutoff for positive 3-fold increase, read-out: AK-based Prestwick Library Screening Results, E. coli (fold increase in extracellular AK activity).
Where [23] appears, read: planktonic, cutoff for positive 3-fold increase, read-out: AK-based Prestwick Library Screening Results, K. pneumoniae (fold increase in extracellular AK activity).

In the case of `NS(=O)(=O)c1cc(C(=O)O)c(NCc2ccco2)cc1Cl` [Furosemide], the fold induction at 50 µM in assay [1] (setting [3]) was determined as 0.8; in the assay with E. faecium (setting [4]), 0.9; in the assay with E. cloacae (setting [5]), 0.8; in assay [2] (setting [6]), 0.7; in the assay on P. aeruginosa (setting [7]) it was 0.9; in the assay on E. coli (setting [8]), 1. Moreover, the fold induction at 50 µM in the assay with K. pneumoniae (setting [9]) worked out at 0.7.
On to `CCCCc1ccc(C(=O)O)nc1` [Fusaric acid], for which the fold induction at 50 µM in assay [1] (setting [10]) was 0.9; in the assay with E. faecium (setting [11]) it was 1.1; in the assay on E. cloacae (setting [12]), 1.2; in assay [2] (setting [13]) it was 0.9; in the assay with P. aeruginosa (setting [14]), 1.1; in the assay on E. coli (setting [15]) it was 0.8. Also, the fold induction at 50 µM in the assay with K. pneumoniae (setting [16]) amounted to 0.9.
Regarding `CC(=O)O[C@H]1C[C@@]2(C)[C@@H](C[C@@H](O)[C@H]3[C@@]4(C)CC[C@@H](O)[C@@H](C)[C@@H]4CC[C@@]32C)/C1=C(\CCC=C(C)C)C(=O)O` [Fusidic acid sodium salt], the fold induction at 50 µM in assay [1] (setting [17]) was determined as 1.3; in the assay with E. faecium (setting [18]), 1.1; with E. cloacae (setting [19]) it was 1.4; in assay [2] (setting [20]), 4.2; in the assay on P. aeruginosa (setting [21]), 1.1; with E. coli (setting [22]), 1.1. In addition, the fold induction at 50 µM in the assay with K. pneumoniae (setting [23]) turned out to be 1.1.
On to `Fc1ccc(C(OCCN2CCN(CCCc3ccccc3)CC2)c2ccc(F)cc2)cc1` [GBR 12909 dihydrochloride], for which the fold induction at 50 µM in assay [1] (setting [17]) is 2.2; in the assay on E. faecium (setting [18]) it was 1.3; in the assay on E. cloacae (setting [19]) it was 1.5; in assay [2] (setting [20]) it was 1.5; with P. aeruginosa (setting [21]) it was 1.2; with E. coli (setting [22]), 1.4. The fold induction at 50 µM with K. pneumoniae (setting [23]) was 1.
With `NCC1(CC(=O)O)CCCCC1` [Gabapentin], the fold induction at 50 µM in assay [1] ([…], read-out: AK-based Prestwick Library Screening Results, A. baumannii (fold increase in extracellular AK activity)) worked out at 1.4; with E. faecium ([…], read-out: AK-based Prestwick Library Screening Results, E. faecium (fold increase in extracellular AK activity)) it was 1; with E. cloacae ([…], read-out: AK-based Prestwick Library Screening Results, E. cloacae (fold increase in extracellular AK activity)), 1.6; in assay [2] ([…], read-out: AK-based Prestwick Library Screening Results, S. aureus (fold increase in extracellular AK activity)) it was 1.5; with P. aeruginosa ([…], read-out: AK-based Prestwick Library Screening Results, P. aeruginosa (fold increase in extracellular AK activity)), 1.3; in the assay on E. coli ([…], read-out: AK-based Prestwick Library Screening Results, E. coli (fold increase in extracellular AK activity)), 1.4. In the assay on K. pneumoniae ([…], read-out: AK-based Prestwick Library Screening Results, K. pneumoniae (fold increase in extracellular AK activity)), the fold induction at 50 µM stood at 1.1.
In the case of `COc1ccc(-c2ccc(=N)n(CCCC(=O)O)n2)cc1` [Gabazine], the fold induction at 50 µM in assay [1] (setting [3]) came to 1.1; with E. faecium (setting [4]) it was 1.1; in the assay with E. cloacae (setting [5]) it was 1.3; in assay [2] (setting [6]) it was 1.1; with P. aeruginosa (setting [7]) it was 1; in the assay on E. coli (setting [8]), 1. For the same molecule, the fold induction at 50 µM in the assay on K. pneumoniae (setting [9]) is 0.8.
Regarding `CCOC(=O)c1ccc(OC(=O)CCCCCN=C(N)N)cc1.CS(=O)(=O)O` [Gabexate mesilate], the “AK-based Prestwick library screening result, A. baumannii (fold increase in extracellular AK activity)” value in assay [1] (planktonic A. baumannii, positive cutoff 3-fold increase) is 1.1. Moreover, the “AK-based Prestwick library screening result, E. faecium (fold increase in extracellular AK activity)” value in the assay with E. faecium (planktonic E. faecium, positive cutoff 3-fold increase) was 1.1. The “AK-based Prestwick library screening result, E. cloacae (fold increase in extracellular AK activity)” value in the assay on E. cloacae (planktonic E. cloacae, positive cutoff 3-fold increase) is reported as 1.4. Also, the “AK-based Prestwick library screening result, S. aureus (fold increase in extracellular AK activity)” value in assay [2] (planktonic S. aureus, positive cutoff 3-fold increase) came out at 1.3. Moreover, the “AK-based Prestwick library screening result, P. aeruginosa (fold increase in extracellular AK activity)” value in the assay with P. aeruginosa (planktonic P. aeruginosa, positive cutoff 3-fold increase) turned out to be 1.1. In the assay with E. coli (planktonic E. coli, positive cutoff 3-fold increase), the “AK-based Prestwick library screening result, E. coli (fold increase in extracellular AK activity)” value is given as 1.1. Moreover, the “AK-based Prestwick library screening result, K. pneumoniae (fold increase in extracellular AK activity)” value with K. pneumoniae (planktonic K. pneumoniae, positive cutoff 3-fold increase) was found to be 0.9.
With `COc1ccc2c3c1O[C@H]1C[C@@H](O)C=C[C@@]31CCN(C)C2` [Galanthamine hydrobromide], the fold induction at 50 µM in assay [1] (setting [10]) stood at 0.8; in the assay on E. faecium (setting [11]) it was 0.9; in the assay on E. cloacae (setting [12]), 1; in assay [2] (setting [13]) it was 0.8; in the assay on P. aeruginosa (setting [14]) it was 0.8; with E. coli (setting [15]) it was 0.9. The fold induction at 50 µM in the assay with K. pneumoniae (setting [16]) came to 0.8.
For the molecule `CC[N+](CC)(CC)CCOc1cccc(OCC[N+](CC)(CC)CC)c1OCC[N+](CC)(CC)CC` [Gallamine triethiodide], the fold induction at 50 µM in assay [1] (planktonic A. baumannii, 384-well, cutoff for positive-scoring molecules 3-fold increase, read-out: AK-based Prestwick Library Screening Results: A. baumannii (increase in extracellular AK activity)) amounted to 1.2; in the assay on E. faecium (planktonic E. faecium, 384-well, cutoff for positive-scoring molecules 3-fold increase, read-out: AK-based Prestwick Library Screening Results: E. faecium (increase in extracellular AK activity)) it was 1; in the assay with E. cloacae (planktonic E. cloacae, 384-well, cutoff for positive-scoring molecules 3-fold increase, read-out: AK-based Prestwick Library Screening Results: E. cloacae (increase in extracellular AK activity)), 1.5; in assay [2] (planktonic S. aureus, 384-well, cutoff for positive-scoring molecules 3-fold increase, read-out: AK-based Prestwick Library Screening Results: S. aureus (increase in extracellular AK activity)) it was 1.1; in the assay on P. aeruginosa (planktonic P. aeruginosa, 384-well, cutoff for positive-scoring molecules 3-fold increase, read-out: AK-based Prestwick Library Screening Results: P. aeruginosa (increase in extracellular AK activity)), 1; in the assay with E. coli (planktonic E. coli, 384-well, cutoff for positive-scoring molecules 3-fold increase, read-out: AK-based Prestwick Library Screening Results: E. coli (increase in extracellular AK activity)) it was 1.3. In addition, the fold induction at 50 µM with K. pneumoniae (planktonic K. pneumoniae, 384-well, cutoff for positive-scoring molecules 3-fold increase, read-out: AK-based Prestwick Library Screening Results: K. pneumoniae (increase in extracellular AK activity)) was 1.1.
